Measurements as given in article PMC7200681, “The calcitonin-like system is an ancient regulatory system of biomineralization” (Scientific Reports, 2020).
Bridge positions count the residues as written; N and C are the ends.

What was measured:
mussel CALCRIIc = assay: Calcium mobilization assay (apoaequorin bioluminescence), dose-response, HEK 293 cells expressing mussel CALCRIIc; assay type: cell-based, Mytilus coruscus; settings: HEK 293/apoaequorin, 1 μM to 0.01 nM
Description: The complete sequence of the Mediterranean mussel CALCRIa was amplified using specific primers (Table 1) from cDNA of a tissue mixture (mantle, adductor muscle, gills, gonads) using a proofreading DNA polymerase (iProof BIORAD, Portugal) and cloned into the pGEMT-easy vector (PROMEGA, Spain). The Mediterranean mussel CALCRIIa transcript that was found in the mantle transcriptome was incomplete and lacked the N-terminus (by comparisons with the hard-shelled mussel homologue) and so the remaining sequence (from 1–393 bp) was deduced from the hard-shelled mussel homologue receptor and the receptor was synthesised and supplied by GENESCRIPT (USA). The complete transcripts for mussel CALCRIc, CALCRIIb and CALCRIIc were only found in the hard-shelled mussel mantle transcriptome and homologues were only found in the Mediterranean mussel genome as they were absent from the species mantle transcriptome and so they were also synthesised and supplied by GENESCRIPT (USA) using the hard-shelled mussel receptor sequences as template. […]
Mammalian cell cultures and transfections followed the methodology described by[89],[90]. […] Cell recovery was monitored daily and the medium was changed every two days until no cell death was observed. […]
(§1) HEK293 cells stably expressing five mussel receptors (CALCRIa, CALCRIc, CALCRIIa, CALCRIIb and CALCRIIc) were stimulated with the two mussel peptides and the vertebrate (human and salmon) calcitonins. Receptor activation was assessed in vitro by measuring two intracellular signalling pathways: a) production of cAMP and b) mobilization of calcium (Ca^2+). The cellular response was initially assessed using 10 μM of each peptide. […]
Stable cell lines expressing the mussel receptors were transiently co-transfected with the mitochondrial targeted apo-aequorin protein cloned in pcDNA3.1. Two days after transfection cells were washed, counted and resuspended in 1 ml of DMEM /F12 Ham (without phenol red)/0.1% BSA supplemented with 2 µM coelenterazine (SIGMA-ALDRICH). […]

mussel mantle cells = assay: Calcium uptake by isolated mantle cells (calcein fluorescence); assay type: cell-based, Mytilus galloprovincialis; settings: CALCIIa 10 μM, 4 hours, calcein 50 mM
Description: Figure 7 Effect of the mussel calcitonin-like peptide on (A) calcium (ppm) concentration in the mantle edge and (B) calcium uptake by mantle cells of the Mediterranean mussel. (A) The quantity of calcium (ppm) present in the mantle edge after mussel CALCIIa peptide incubation was measured using a Microwave Plasma-Atomic Emission Spectrometer (MP-AES, Agilent) at 393.366 nm. A standard curve for calcium was performed before analysing the samples. In vitro mantle assays with CALCIIa peptide and with ouabain and control (culture medium and mantle) were repeated on at least 3 independent occasions. […] An increase in cellular fluorescence represents an increase in calcium uptake. Fluorescence of the CALCIIa peptide stimulated cells was 1.9 times higher than the control. The average mantle cell size was 3–4 μm and fluorescent images were taken using a Leica DM IL microscope coupled to a Visicam HDMI 6 digital camera and photographs were analysed using ImageJ software (v. 1.52a) to calculate the fluorescence intensity and for image overlay. […]
Mantle cells were isolated from Mediterranean mussel mantle edge explants of the posterior region and were incubated with the CALCIIa peptide. […] Photographs were analysed for image overlay and to calculate fluorescence intensity (corrected total cell fluorescence, CTCF) using ImageJ software (v. 1.52a). […]

mussel CALCRIIa = assay: Calcium mobilization assay (apoaequorin bioluminescence), dose-response, HEK 293 cells expressing mussel CALCRIIa; assay type: cell-based, Mytilus galloprovincialis; settings: calcium mobilization, HEK 293/apoaequorin, 1 μM to 0.01 nM
Description: The complete sequence of the Mediterranean mussel CALCRIa was amplified using specific primers (Table 1) from cDNA of a tissue mixture (mantle, adductor muscle, gills, gonads) using a proofreading DNA polymerase (iProof BIORAD, Portugal) and cloned into the pGEMT-easy vector (PROMEGA, Spain). The Mediterranean mussel CALCRIIa transcript that was found in the mantle transcriptome was incomplete and lacked the N-terminus (by comparisons with the hard-shelled mussel homologue) and so the remaining sequence (from 1–393 bp) was deduced from the hard-shelled mussel homologue receptor and the receptor was synthesised and supplied by GENESCRIPT (USA). The complete transcripts for mussel CALCRIc, CALCRIIb and CALCRIIc were only found in the hard-shelled mussel mantle transcriptome and homologues were only found in the Mediterranean mussel genome as they were absent from the species mantle transcriptome and so they were also synthesised and supplied by GENESCRIPT (USA) using the hard-shelled mussel receptor sequences as template. The mussel CALCRIb transcript was incomplete and lacked both N and C-terminal regions and it was not possible to obtain the complete transcript either by searching both mussels mantle transcriptomes or the Mediterranean mussel genome and so it was not produced. All synthetized receptors were provided in the pUC57 cloning vector by the company and receptor codon usage was optimized to favour a high level of expression in mammalian cells.
Mammalian cell cultures and transfections followed the methodology described by[89],[90]. Mammalian HEK293 cells (ECACC, UK) were used and they were maintained in complete Dulbecco’s modified Eagle’s medium (DMEM, 4.5 g/l glucose, 110 mg/l sodium pyruvate and L-glutamine, SIGMA-ALDRICH, Spain) supplemented with 10% sterile foetal bovine serum (FBS), 0.1% penicillin: streptomycin antibiotic mix (10,000 U:10 mg/ml, Sigma) and 250 μg /ml sterile filtered 1:100 amphotericin B solution (SIGMA-ALDRICH) in a humid 5% CO2 incubator (HERAEUS, Portugal) at 37 °C. On the day prior to transfection, 2–3 × 10^5 HEK293 cells were seeded on 6 well plates (SARSTEDT, Portugal) and transfected with Fugene HD transfection reagent (2 DNA: 4 Fugene ratio, PROMEGA) following the manufacturer’s protocol. Seventy-two hours after transfection, 800 μg/ml of the antibiotic Geneticin (SIGMA-ALDRICH) was added to the medium to select and isolate stable receptor cell lines. Cell recovery was monitored daily and the medium was changed every two days until no cell death was observed. […]
as §1
Stable cell lines expressing the mussel receptors were transiently co-transfected with the mitochondrial targeted apo-aequorin protein cloned in pcDNA3.1. Two days after transfection cells were washed, counted and resuspended in 1 ml of DMEM /F12 Ham (without phenol red)/0.1% BSA supplemented with 2 µM coelenterazine (SIGMA-ALDRICH). […] The injector system of the Biotek Synergy 4 microplate reader (USA) was used to inject 50 µl of the cell suspensions into wells containing 50 μl of the diluted peptide in DMEM / F12 Ham / 0.1% BSA. […]

Substance: H-CTWGGGMSDEMCSTVDIDEIQRSFQVIHDRNSP-NH2 (disulfide 1-12 (inferred)) [CALCIIa, Mediterranean mussel calcitonin-like mature peptide, 33 aa, synthesized with disulphide bond and C-terminal amidation]
- Activation of mussel CALCRIIc in dose-response analysis (in words) (mussel CALCRIIc): exclusively activated
- Increase in intensity of fluorescent calcium staining versus control mantle cells (mussel mantle cells; ImageJ CTCF): 1.9 times
- Mean corrected total cell fluorescence (CTCF) of mantle cells (mussel mantle cells; control = 1405154): 2654581
- Activation of mussel CALCRIIa in dose-response analysis (in words) (mussel CALCRIIa): not activated
